Assay results published in patent US20240174632A1, “INHIBITING HUMAN INTEGRIN (ALPHA-4) (BETA-7)” (Morphic Therapeutic, Inc., priority 2019, published 2024).
pIC50: −log10 of the molar value.

Legend:
integrin α4β7 = molecular target: T1, integrin α4β7 (Homo sapiens, UniProt P13612+P26010); experiment: Fluorescence Polarization (FP) assay for α4β7 binding, competition with fluorescein-labeled peptide; settings: 6.5 nM integrin α4β7, 3 nM fluorescein-labeled peptide, 2 mM MnCl2; Tables 3A, 3B, 4; read-out: FP Assay (Example 5) IC50
T1 sequence (P13612 34-1032): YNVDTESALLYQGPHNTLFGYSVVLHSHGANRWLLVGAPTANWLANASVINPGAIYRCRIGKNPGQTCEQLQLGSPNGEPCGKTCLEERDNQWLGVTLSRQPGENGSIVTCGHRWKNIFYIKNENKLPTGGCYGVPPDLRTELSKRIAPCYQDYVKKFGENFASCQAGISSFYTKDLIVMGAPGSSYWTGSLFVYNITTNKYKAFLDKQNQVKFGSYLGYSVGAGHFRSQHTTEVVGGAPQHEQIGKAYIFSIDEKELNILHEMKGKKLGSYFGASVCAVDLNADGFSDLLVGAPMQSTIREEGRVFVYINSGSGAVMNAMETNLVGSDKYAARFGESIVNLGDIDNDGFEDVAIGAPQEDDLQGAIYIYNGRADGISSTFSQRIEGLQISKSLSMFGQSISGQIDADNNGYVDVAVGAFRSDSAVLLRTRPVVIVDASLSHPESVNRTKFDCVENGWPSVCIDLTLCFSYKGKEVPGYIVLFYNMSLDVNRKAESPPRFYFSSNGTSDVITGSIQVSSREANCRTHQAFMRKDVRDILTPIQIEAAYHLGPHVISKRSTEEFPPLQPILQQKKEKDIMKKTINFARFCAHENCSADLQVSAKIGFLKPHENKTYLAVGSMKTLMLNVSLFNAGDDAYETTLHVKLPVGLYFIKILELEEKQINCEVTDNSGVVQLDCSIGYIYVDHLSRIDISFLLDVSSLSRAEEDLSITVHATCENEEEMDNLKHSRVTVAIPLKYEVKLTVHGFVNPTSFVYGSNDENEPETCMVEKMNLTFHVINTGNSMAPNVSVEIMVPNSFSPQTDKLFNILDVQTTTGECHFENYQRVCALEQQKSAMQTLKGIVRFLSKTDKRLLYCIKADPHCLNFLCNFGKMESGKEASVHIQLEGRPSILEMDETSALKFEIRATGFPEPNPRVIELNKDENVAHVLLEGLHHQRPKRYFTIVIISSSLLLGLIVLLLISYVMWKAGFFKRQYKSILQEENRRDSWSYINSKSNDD
T1 sequence (P26010 20-798): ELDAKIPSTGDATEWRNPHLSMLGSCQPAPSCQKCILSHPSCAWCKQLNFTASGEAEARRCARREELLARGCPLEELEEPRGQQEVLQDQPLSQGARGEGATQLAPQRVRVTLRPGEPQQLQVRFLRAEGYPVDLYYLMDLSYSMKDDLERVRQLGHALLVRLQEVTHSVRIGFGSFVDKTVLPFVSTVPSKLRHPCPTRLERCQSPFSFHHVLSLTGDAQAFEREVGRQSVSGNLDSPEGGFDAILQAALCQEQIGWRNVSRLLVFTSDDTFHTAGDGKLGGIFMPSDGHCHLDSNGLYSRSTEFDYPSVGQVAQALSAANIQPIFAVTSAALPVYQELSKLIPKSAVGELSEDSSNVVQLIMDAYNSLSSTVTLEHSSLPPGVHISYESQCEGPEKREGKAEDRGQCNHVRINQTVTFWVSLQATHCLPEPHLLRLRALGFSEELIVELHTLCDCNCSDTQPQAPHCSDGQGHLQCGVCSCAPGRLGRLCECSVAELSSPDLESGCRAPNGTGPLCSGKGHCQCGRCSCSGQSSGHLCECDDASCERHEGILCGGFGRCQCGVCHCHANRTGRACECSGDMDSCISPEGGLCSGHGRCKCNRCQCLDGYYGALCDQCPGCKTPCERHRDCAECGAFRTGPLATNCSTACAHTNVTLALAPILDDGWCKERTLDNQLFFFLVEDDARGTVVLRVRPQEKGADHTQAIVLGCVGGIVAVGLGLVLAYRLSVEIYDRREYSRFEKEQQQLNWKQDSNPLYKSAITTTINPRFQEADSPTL
Description: (§1) Three in vitro assays were used to examine the α4β7 mechanistic process used by cells: 1) ligand:receptor affinity, 2) the avidity of those interactions on a cell's surface, and 3) how those interactions fare under an imposing force. In Example 5, a Fluorescence Polarization (FP) assay is used to measure compound activity through binding competition with the fluorescein-labeled peptide. In Example 6, the potency of compounds against α4β7 is measured in the cell-based ligand binding assay (LBA), using RPMI 8866 cells incubated with the compound samples in competition with soluble MAdCAM-1 ligand. In Example 7, activity of compounds is evaluated in a cell adhesion assay that mechanistically tests what occurs in vivo when trafficking cells utilize α4β7 to adhere to MAdCAM-1 expressing HEVs of the gut during the extravasation process. […] Unattached cells are removed and the remaining adherent cells are quantified.
Fluorescence Polarization (FP) assays were used to measure compound activity through binding competition with the fluorescein-labeled peptide […]{Lys(FITC)}. […] After the fluorescein-labeled peptide was added, the assay was incubated at 22° C. for 1 hour and fluorescence polarization was measured. IC50 values were determined by non-linear regression, four-parameter curve fitting.

α4β7 [1] = molecular target: T2, α4β7 (Homo sapiens, UniProt P13612+P26010); experiment: Cell adhesion assay, RPMI8866 cells adhering to MAdCAM coated plates; format: cell-based; settings: RPMI8866 cells on recombinant human MAdCAM coated plates; Tables 3A, 3B, 4; read-out: CA Assay (Example 7) IC50
T2 construct: endogenous in cells; host or cells: RPMI 8866 cells
T2 sequence (P13612 34-1032): T1 sequence (P13612 34-1032)
T2 sequence (P26010 20-798): T1 sequence (P26010 20-798)
Description: as §1, with “quantified. […]” for “quantified.”
To each well of a 96 well plate, 100 ug of recombinant human MAdCAM in 100 ul PBS is added and incubated overnight at 4° C. […] Plate is incubated on shaker for 2 minutes at 200 RPM followed by another 8 minutes off shaker before having the luminescence read on a Biotek Citation 5 plate reader. Raw data is converted to % inhibition compared to bottom of curve and analyzed using a 4-parameter non linear curve in Prism to determine IC50 and IC90.

α4β7 [2] = molecular target: T2, α4β7; experiment: Cell-based ligand binding assay (LBA), RPMI 8866 cells, competition with soluble MAdCAM-1-Fc; settings: MAdCAM-1-Fc Dylight 650, flow cytometry, Tables 3A, 3B, 4, read-out: LB Assay (Example 6) IC50
Description: as §1
5 ul of 33 nM MAdCAM-1-Fc fluorescently labeled with Dylight 650 in 50 mM HEPES pH 7.3, 150 mM sodium chloride, and 1% bovine serum albumin was added to the cells. […] Fluorescence intensity for each cell was measured via flow cytometry. […] Median fluorescence intensity for Dylight 650 was determined for each sample and concentration-response curves were analyzed for IC50 values using 4-parameter non-linear regression analysis.

Row | pIC50 (integrin α4β7) | pIC50 (α4β7 [1]) | pIC50 (α4β7 [2]) | Structure (SMILES)
1 | > 8.00 | > 8.30 |  | Cc1cc(=O)n([C@@H](CC(C)C)C(=O)N[C@@H](CC(=O)O)c2cc(-c3c(C)cccc3C)cc(F)c2F)cc1CCN1CC(F)C1 [D-P2, (3S)-3-(4,5-difluoro-2′,6′-dimethylbiphenyl-3-yl)-3-(2-(5-(2-(3-fluoroazetidin-1-yl)ethyl)-4-methyl-2-oxopyridin-1(2H)-yl)-4-methylpentanamido)propanoic acid]
2 | > 8.00 |  | ≥ 8.00 | COc1ccc(C)c(-c2cc(C)c(F)c([C@H](CC(=O)O)NC(=O)C(CC(C)C)n3cc(CCN4CCC4)c(C(F)(F)F)cc3=O)c2)c1C (single isomer, unassigned) [AG-P2]
